Results as given in publication PMC7483518, “Destabilizing single chain major histocompatibility complex class I protein for repurposed enterokinase proteolysis” (Scientific Reports, 2020).
Several values for one entry are separate records, joined by “and”; a condition that tells them apart may be missing. Identical values can stand only once. Like-named read-outs stand apart in the source and are kept apart here.

Columns and labels:
[1] = tested on: HLA-A*11:01 single chain protein; assay type: biochemical, Human; set-up: EZ50kDa / EZ50kD (pH 6.2) / EZ50kD (pH 8) / EZ50kD (normalised: EBV1101 = 1, EBV0201 = 0) / EZ50kDa rank: unit not given beside the values; conditions: for vol: mean Adj. Volume of the 2 replicates; for Batch Mean: mean of the 2 replicates of EZ50kD; for EZ50kDa: Table 3, EGFR peptide library (n = 177, duplicated), pH 6.2, 37 °C, 14 h, enterokinase, Eq. (4);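 for EZ50kDa: intact 50 kDa band volume scaled with positive control peptide as 1 and negative as 0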
[2] = target: photolabile unchained HLA-A*11:01 pMHC-I protein (Homo sapiens, UniProt P04439, A114D/D185E/E176A/F33Y/L180Q/S129P/T187R); experiment: ELISA with photolabile unchained pMHC-I protein and UV irradiation; assay type: binding
[3] = target: T1, photo-labile unchained HLA-A*11:01 MHC-I protein (Homo sapiens, UniProt P04439, A114D/D185E/E176A/F33Y/L180Q/S129P/T187R); experiment: Photo-labile unchained MHC-I protein treated with UV, peptides and enterokinase (SDS-PAGE band volume); assay type: biochemical; conditions: for vol: mean Adj. Volume of the 2 replicates; for Batch Mean: mean of the 2 replicates of EZ50kD
T1 construct: made in house

[4] = EGFR mutation peptide library and control peptides, HLA-A*11:01, mean, STDEV
[5] = EASY MHC-I A*11:01, run 2019-08-08, 5min, mean of 2 replicates

FGSLLDYVREHK [CS1048]
vol [1]: 7729416 | Batch Mean [1]: 0.09362 | EASY_mean [2]: 0.1889 | vol [3]: 12972708 | Batch Mean [3]: 0.7597

GSLLDYVREHK [CS1037]
EZ_mean [1]: 0.3673 | EZ50kDa [1]: 0.367 ± 0.022 | vol [1]: 11854307 | Batch Mean [1]: 0.2216 | EASY_mean [2]: 0.5397 | vol [3]: 9517473 | Batch Mean [3]: -1.196

MQLMPFGCLLDY [TM1050]
EZ_mean [1]: 0.09599 | EZ50kDa [1]: 0.0956 ± 0.004 | vol [1]: 8153341 | Batch Mean [1]: 0.1072 | EASY_mean [2]: 0.2124 | vol [3]: 5027054 | Batch Mean [3]: -0.2574

QLMPFGSLLDY [CS1032]
EZ_mean [1]: 0.8691 | Norm_mean [1]: 1.167 | EZ50kDa [1]: 0.869 ± 0.174 | vol [1]: 30217126 | Batch Mean [1]: 0.787 | EASY_mean [2, 4]: 0.7325 | vol [3]: 11215354 | Batch Mean [3]: -0.05053

SLLDYVREH [CS1017]
EZ_mean ([1]; EASY MHC-I A*11:01, 2019-08-01, mean of the 2 replicates): 0.7333 | EZ MHC-I stability with HLA-A*11:01 single chain protein ([1]; Fig. 2f,g, EGFR peptide library): strongly stabilizing | EZ50kDa [1]: 0.733 ± 0.140 | vol [1]: 26057980 | Batch Mean [1]: 0.6595 | EASY_mean [2]: 0.4725 | vol [3]: 10431446 | Batch Mean [3]: -0.3978

SLLDYVREHK [CS1027]
EZ_mean [1]: 0.9134 | Norm_mean [1]: 1.317 | EZ50kDa [1]: 0.811 ± 0.171 | vol [1]: 29201845 | Batch Mean [1]: 0.7556 | EASY_mean [2, 4]: 0.7046 | vol [3]: 11075589 | Batch Mean [3]: -1.466

SLLDYVREHKDN [CS1050]
EZ50kDa [1]: 0.0255 ± 0.005 | vol [1]: 7574013 | Batch Mean [1]: 0.08881 | EASY_mean [2]: 0.2031 | vol [3]: 12012525 | Batch Mean [3]: -2.24

VAIKTSPKANK [EX1018, EGFR exon 19 deletion-derived peptide]
EZ_mean ([1]; EASY MHC-I A*11:01, 2019-07-26, mean of the 2 replicates): 0.2216 | EZ50kDa [1]: 0.2 and 0.222 ± 0.010 | vol [1]: 9218005 | Batch Mean [1]: 0.1404 | EASY_mean ([2]; […], mean, STDEV): 0.2323 | vol [3]: 8041509 | Batch Mean [3]: 0.2261

VQLIMQLMPF [TM1023]
EZ_mean [1, 5]: -0.03531 | Norm_mean [1, 5]: -0.02177 | EASY_mean ([2]; […], mean, STDEV): -0.02163

VQLIMQLMPFG [TM1034]
EZ_mean [1]: -0.1329 | EASY_mean ([2]; ELISA signal, mean, […]): -0.07888

VQLIMQLMPFGC [TM1045]
EZ_mean [1]: -0.1164 | EASY_mean ([2]; ELISA signal, mean, […]): -0.05081

VQLITQLMPFGS [CS1039]
EZ_mean [1]: -0.04039 | EASY_mean [2]: -0.02003
